Patent US20240315989A1 (priority 2021, published 2024)

Assays:
σ1 site [1] = biological target: T1, σ1 site (Homo sapiens, UniProt Q99720); conditions: read-out: Affinity for σ1 Site (Ki or KD values); cited from earlier work
σ1 site [2] = biological target: T1, σ1 site; conditions: cited from earlier work
SARS-CoV-2 infection = experiment: Retrospective cohort (BJC Healthcare): antidepressant exposure and ED or hospital encounter within 30 days; assay type: in vivo, human; conditions: for Unadjusted Odds Ratio, ED or hospital encounter within 30 days / Adjusted Odds Ratio, ED or hospital encounter within 30 days: vs No Antidepressant (Ref); for Unadjusted Odds Ratio, ED or hospital encounter within 30 days: logistic regression; for Adjusted Odds Ratio, ED or hospital encounter within 30 days: multivariable logistic regression, complete cases
[3] = share of exposed outpatients with an encounter after a positive SARS-CoV-2 test

T1 sequence (Q99720 whole entry): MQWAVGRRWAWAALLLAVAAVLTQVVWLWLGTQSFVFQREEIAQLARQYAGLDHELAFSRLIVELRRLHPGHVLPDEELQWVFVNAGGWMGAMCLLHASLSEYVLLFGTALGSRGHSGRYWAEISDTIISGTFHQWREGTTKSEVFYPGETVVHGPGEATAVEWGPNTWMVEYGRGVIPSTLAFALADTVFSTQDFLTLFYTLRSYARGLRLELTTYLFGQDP

In the case of `COC(=O)C1(c2ccc(C)cc2)CC1CN1CCC(O)(c2ccccc2)CC1` (single isomer, unassigned; (+)) [(+)-MR 200], the Ki (σ1 site [1]) is listed as under 50 nM and the “Function on σ1 Site” value (σ1 site [2]) is listed as “Antagonist”.

For `CC(C)=CCN1CCC2(C)c3cc(O)ccc3CC1C2C` (single isomer, unassigned; (+)) [(+)-Pentazocine], the “Function on σ1 Site” value (σ1 site [2]) is given as “Agonist”.

In the case of `CC(C)=CCN1CCC2(C)c3cc(O)ccc3CC1C2C` (single isomer, unassigned; (-)) [(−)-Pentazocine], the “Function on σ1 Site” value (σ1 site [2]) is listed as “Agonist”.

For `O=C(NC1CCN(Cc2ccccc2)CC1)c1ccc(I)cc1` [4-IBP], the Ki (σ1 site [1]) is given as under 50 nM and the “Function on σ1 Site” value (σ1 site [2]) is given as “Agonist”.

In the case of `CCCN1CCC[C@H](c2cccc(O)c2)C1` [(+)-3-PPP], the “Function on σ1 Site” value (σ1 site [2]) is listed as “Agonist”.

For `NC12CC3CC(CC(C3)C1)C2` [Amantadine], the “Function on σ1 Site” value (σ1 site [2]) is given as “Agonist^?”.

For `CN(C)CCN(C)CCc1ccc(Cl)c(Cl)c1` [BD 1047], the “Function on σ1 Site” value (σ1 site [2]) is given as “Antagonist”.

In the case of `CN1CCN(CCc2ccc(Cl)c(Cl)c2)CC1` [BD 1063], the Ki (σ1 site [1]) is listed as under 50 nM and the “Function on σ1 Site” value (σ1 site [2]) is listed as “Antagonist”.

In the case of `OC(CCCN1CCN(c2ncc(F)cn2)CC1)c1ccc(F)cc1` (stereo not shown) [BMY 14802], the “Function on σ1 Site” value (σ1 site [2]) is given as “Antagonist”.

For `CCN(CC)CCOCCOC(=O)C1(c2ccccc2)CCCC1` [Carbetapentane], the Ki (σ1 site [1]) is given as under 50 nM and the “Function on σ1 Site” value (σ1 site [2]) is given as “Agonist”.

In the case of `C#CCN(C)CCCOc1ccc(Cl)cc1Cl` [Clorgyline], the Ki (σ1 site [1]) is listed as under 50 nM and the “Function on σ1 Site” value (σ1 site [2]) is listed as “Agonist^?”.

For `COC(=O)[C@H]1[C@@H](OC(=O)c2ccccc2)C[C@@H]2CC[C@H]1N2C` [Cocaine], the Ki (σ1 site [1]) is given as under 10000 nM.

For `C[C@]12CC[C@H](OS(=O)(=O)O)CC1=CC[C@@H]1[C@@H]2CC[C@]2(C)C(=O)CC[C@@H]12` [DHEAS], the Ki (σ1 site [1]) is given as under 10000 nM and the “Function on σ1 Site” value (σ1 site [2]) is given as “Agonist”.

With `CN(C)CC(c1ccc(O)cc1)C1(O)CCCCC1` (stereo not shown) [Desvenlafaxine] the “ED or hospital encounter within 30 days, %” value (SARS-CoV-2 infection; [3]) was 18.7%, the “Unadjusted Odds Ratio, ED or hospital encounter within 30 days” value (“Unadjusted Odds Ratio” below) (SARS-CoV-2 infection) was 2.15 and the “Adjusted Odds Ratio, ED or hospital encounter within 30 days” value (SARS-CoV-2 infection) was 0.95.

In the case of `Cc1ccc2c(c1)[C@]13CCCC[C@@H]1[C@H](C2)N(C)CC3` [Dimemorfan], the Ki (σ1 site [1]) is listed as under 500 nM and the “Function on σ1 Site” value (σ1 site [2]) is listed as “Agonist”.

In the case of `COc1cc2c(cc1OC)C(=O)C(CC1CCN(Cc3ccccc3)CC1)C2` (stereo not shown) [Donepezil], the Ki (σ1 site [1]) is listed as under 50 nM and the “Function on σ1 Site” value (σ1 site [2]) is listed as “Agonist”.

With `CN(C)CCC=C1c2ccccc2COc2ccccc21` [Doxepin] the “ED or hospital encounter within 30 days, %” value (SARS-CoV-2 infection; [3]) was 27.5%, the “Unadjusted Odds Ratio” value (SARS-CoV-2 infection) was 3.55 and the “Adjusted Odds Ratio, ED or hospital encounter within 30 days” value (SARS-CoV-2 infection) was 1.10.

In the case of `CNCC[C@H](Oc1cccc2ccccc12)c1cccs1` [Duloxetine], the “ED or hospital encounter within 30 days, %” value (SARS-CoV-2 infection; [3]) is reported as 21.8%, the “Unadjusted Odds Ratio” value (SARS-CoV-2 infection) is reported as 2.61 and the “Adjusted Odds Ratio, ED or hospital encounter within 30 days” value (SARS-CoV-2 infection) is reported as 0.95.

In the case of `O=C(CC1CCN(CC2CC2)CC1)c1ccc(F)cc1` [Dup 734], the Ki (σ1 site [1]) is listed as under 50 nM.

For `Fc1ccc(C2=CCN(CCCCn3cncn3)CC2)cc1.O=C(O)CC(O)(CC(=O)O)C(=O)O` [E-5842], the Ki (σ1 site [1]) is given as under 50 nM and the “Function on σ1 Site” value (σ1 site [2]) is given as “Antagonist”.

In the case of `OC(CN1CCC(Cc2ccc(F)cc2)CC1)c1ccc(Cl)cc1` (stereo not shown) [Eliprodil (SL-82.0715), Eliprodil], the Ki (σ1 site [1]) is listed as under 500 nM.

For `OC(CCCN1CCC(O)(c2ccc(Cl)cc2)CC1)c1ccc(F)cc1` (stereo not shown) [Haloperidol Metabolite II], the “Function on σ1 Site” value (σ1 site [2]) is listed as “Irreversible”.

In the case of `OC1(c2ccc(Cl)cc2)CCNCC1` [Haloperidol Metabolite I], the Ki (σ1 site [1]) is listed as under 500 nM and the “Function on σ1 Site” value (σ1 site [2]) is listed as “Antagonist”.

In the case of `CCC(C/C=C/c1ccccc1)(c1ccccc1)N(C)CC1CC1` (stereo not shown) [JO-1784 (Igmesine), Igmesine], the Ki (σ1 site [1]) is listed as under 50 nM and the “Function on σ1 Site” value (σ1 site [2]) is listed as “Agonist”.

In the case of `CCN(CC)C(=O)[C@@]1(c2ccccc2)C[C@H]1CN` [Levomilnacipran], the “ED or hospital encounter within 30 days, %” value (SARS-CoV-2 infection; [3]) is reported as 20.0%.

In the case of `CNC(C)Cc1ccc2c(c1)OCO2` (stereo not shown) [MDMA], the Ki (σ1 site [1]) is listed as under 10000 nM.

For `COCCN1CCN(C[C@H]2CCN(c3ccc(Cl)cc3)C2=O)CC1.O=C(O)C(O)C(O)C(=O)O` [MS-377], the Ki (σ1 site [1]) is listed as under 50 nM and the “Function on σ1 Site” value (σ1 site [2]) is listed as “Antagonist”.

In the case of `CC12CC3CC(C)(C1)CC(N)(C3)C2` [Memantine], the Ki (σ1 site [1]) is listed as under 10000 nM and the “Function on σ1 Site” value (σ1 site [2]) is listed as “Agonist^?”.

In the case of `CN[C@@H](C)Cc1ccccc1` [Metamphetamine], the Ki (σ1 site [1]) is given as under 10000 nM.

For `S=C=Nc1cccc(C2(N3CCCCC3)CCCCC2)c1` [Metaphit], the Ki (σ1 site [1]) is given as under 500 nM and the “Function on σ1 Site” value (σ1 site [2]) is given as “Irreversible”.

In the case of `CN1CCN2c3ncccc3Cc3ccccc3C2C1` (stereo not shown) [Mirtazapine], the “ED or hospital encounter within 30 days, %” value (SARS-CoV-2 infection; [3]) is reported as 27.9%.

For `CCCN(CCC)CCc1ccc(OC)c(OCCc2ccccc2)c1` [NE-100], the “Function on σ1 Site” value (σ1 site [2]) is given as “Antagonist”.

For `CCc1nn(CCCN2CCN(c3cccc(Cl)c3)CC2)c(=O)n1CCOc1ccccc1` [Nefazodone], the “ED or hospital encounter within 30 days, %” value (SARS-CoV-2 infection; [3]) was 0.0%.

For `CNc1cc(OC)c(C(=O)NC2CCN(Cc3ccccc3)C2C)cc1Cl` (stereo not shown) [Nemonapride], the Ki (σ1 site [1]) is given as under 50 nM.

With `CNCCC=C1c2ccccc2CCc2ccccc21` [Nortriptyline] the “ED or hospital encounter within 30 days, %” value (SARS-CoV-2 infection; [3]) was 24.3%, the “Unadjusted Odds Ratio” value (SARS-CoV-2 infection) was 3.02 and the “Adjusted Odds Ratio, ED or hospital encounter within 30 days” value (SARS-CoV-2 infection) was 1.08.

In the case of `COc1cccc2c1CCC(=O)N2CCCN1CCN(c2cccc(Cl)c2)CC1` [OPC-14523], the Ki (σ1 site [1]) is given as under 50 nM and the “Function on σ1 Site” value (σ1 site [2]) is given as “Agonist”.

For `O=C(OCCN1CCOCC1)C1(c2ccccc2)CCCCC1` [PRE 084], the “Function on σ1 Site” value (σ1 site [2]) is listed as “Agonist”.

In the case of `COc1ccc(N2C[C@H](CN3CCC(O)(c4ccc5c(c4)OCO5)CC3)OC2=O)cc1` [Panamesine (EMD 57445), Panamesine], the Ki (σ1 site [1]) is given as under 50 nM and the “Function on σ1 Site” value (σ1 site [2]) is given as “Antagonist”.

In the case of `O=C1NC(=O)C(c2ccccc2)(c2ccccc2)N1` [Phenytoin (DPH), Phenytoin], the “Function on σ1 Site” value (σ1 site [2]) is given as “Allosteric”.

In the case of `CC(=O)[C@H]1CC[C@H]2[C@@H]3CCC4=CC(=O)CC[C@]4(C)[C@H]3CC[C@]12C` [Progesterone], the “Function on σ1 Site” value (σ1 site [2]) is listed as “Antagonist”.

In the case of `C[C@@H]1CN(CCCn2c3ccccc3c3ccccc32)C[C@H](C)N1` [Rimcazole (BW-234U), Rimcazole], the “Function on σ1 Site” value (σ1 site [2]) is listed as “Antagonist”.

In the case of `Cc1cccc(/C=N/N2CCN(C(c3ccccc3)c3ccccc3)CC2)n1` [Ropizine], the “Function on σ1 Site” value (σ1 site [2]) is listed as “Allosteric”.

With `O=c1n(CCCN2CCN(c3cccc(Cl)c3)CC2)nc2ccccn12` [Trazodone] the “ED or hospital encounter within 30 days, %” value (SARS-CoV-2 infection; [3]) was 22.6%, the “Unadjusted Odds Ratio” value (SARS-CoV-2 infection) was 2.74 and the “Adjusted Odds Ratio, ED or hospital encounter within 30 days” value (SARS-CoV-2 infection) was 0.99.

In the case of `N#Cc1ccc2[nH]cc(CCCCN3CCN(c4ccc5oc(C(N)=O)cc5c4)CC3)c2c1` [Vilazodone], the “ED or hospital encounter within 30 days, %” value (SARS-CoV-2 infection; [3]) is reported as 29.4%, the “Unadjusted Odds Ratio” value (SARS-CoV-2 infection) is reported as 3.91 and the “Adjusted Odds Ratio, ED or hospital encounter within 30 days” value (SARS-CoV-2 infection) is reported as 1.36.

In the case of `Cc1ccc(Sc2ccccc2N2CCNCC2)c(C)c1` [Vortioxetine], the “ED or hospital encounter within 30 days, %” value (SARS-CoV-2 infection; [3]) is reported as 14.3%, the “Unadjusted Odds Ratio” value (SARS-CoV-2 infection) is reported as 1.56 and the “Adjusted Odds Ratio, ED or hospital encounter within 30 days” value (SARS-CoV-2 infection) is reported as 0.58.

In the case of `CC(NC(C)(C)C)C(=O)c1cccc(Cl)c1` (stereo not shown) [bupropion], the “ED or hospital encounters within 30 days, %” value (SARS-CoV-2 infection; <20 mg fluoxetine-equivalent daily) is reported as 13.9%, the “ED or hospital encounter within 30 days, %” value (SARS-CoV-2 infection; [3]) is reported as 14.3% and the “ED or hospital encounters within 30 days, %” value (SARS-CoV-2 infection; ≥20 mg fluoxetine-equivalent daily) is reported as 15.0%. The “ED or hospital encounters within 30 days, %” value (SARS-CoV-2 infection; ≥40 mg fluoxetine-equivalent daily) was 20.0%.

With `CN(C)CCCC1(c2ccc(F)cc2)OCc2cc(C#N)ccc21` (stereo not shown) [citalopram] the “ED or hospital encounter within 30 days, %” value (SARS-CoV-2 infection; [3]) was 15.8%.

With `CN(C)CCCN1c2ccccc2CCc2ccc(Cl)cc21` [clomipramine] the “ED or hospital encounter within 30 days, %” value (SARS-CoV-2 infection; in vivo) was 18.2%.

In the case of `CNCCCN1c2ccccc2CCc2ccccc21` [desipramine], the “ED or hospital encounter within 30 days, %” value (SARS-CoV-2 infection; [3]) is reported as 10.0%, the “Unadjusted Odds Ratio” value (SARS-CoV-2 infection) is reported as 1.04 and the “Adjusted Odds Ratio, ED or hospital encounter within 30 days” value (SARS-CoV-2 infection) is reported as 0.24.

For `CN(C)CCCN1c2ccccc2CCc2ccccc21` [imipramine], the Ki (σ1 site [1]) is given as under 500 nM, the “ED or hospital encounter within 30 days, %” value (SARS-CoV-2 infection; [3]) is given as 23.5% and the “Function on σ1 Site” value (σ1 site [2]) is given as “Agonist”.

With `COc1ccc(C(CN(C)C)C2(O)CCCCC2)cc1` (stereo not shown) [venlafaxine] the “ED or hospital encounter within 30 days, %” value (SARS-CoV-2 infection; [3]) was 17.1%, the “Unadjusted Odds Ratio” value (SARS-CoV-2 infection) was 1.94 and the “Adjusted Odds Ratio, ED or hospital encounter within 30 days” value (SARS-CoV-2 infection) was 0.78.

In the case of Pregnenolone sulfate, the “Function on σ1 Site” value (σ1 site [2]) is listed as “Agonist”.
